Results: the supplement of paper PMC6045584
± gives the standard deviation of the averaged measurements.

Tests used:
AZD4547 = compound: COc1cc(CCc2cc(NC(=O)c3ccc(N4CC(C)NC(C)C4)cc3)n[nH]2)cc(OC)c1 [AZD4547]; assay: surviving fraction relative to DMSO-only wells; higher = less growth inhibition; conditions: exposure time: 5 days
How it was run: (§1)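 Log-phase tumour cell lines, 250–500 cells per well in 384-well plates, received inhibitors at 0.5, 1, 5, 10, 50, 100, 500 and 1000 nM continuously for five days, starting 24 hours after seeding. Viability was quantified with CellTiter-Glo luminescence and normalised to the median of DMSO-only wells to give surviving fraction. Three screens were run per line, and a line stayed in only with replicate Pearson r >0.7 and median Z' >0.3.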

[1] = compound: Cc1nc(Nc2n[nH]c3c2CN(C(=O)N[C@H](CN(C)C)c2ccccc2)C3(C)C)c2sccc2n1; assay: as above; conditions: exposure time: 5 days
How it was run: as §1

Test System | surviving fraction (AZD4547; 0.5 nM) | surviving fraction (AZD4547; 1 nM) | surviving fraction (AZD4547; 5 nM) | surviving fraction (AZD4547; 10 nM) | surviving fraction (AZD4547; 50 nM) | surviving fraction (AZD4547; 100 nM) | surviving fraction (AZD4547; 500 nM) | surviving fraction (AZD4547; 1000 nM) | surviving fraction ([1]; 0.5 nM) | surviving fraction ([1]; 1 nM) | surviving fraction ([1]; 5 nM) | surviving fraction ([1]; 10 nM) | surviving fraction ([1]; 50 nM) | surviving fraction ([1]; 100 nM) | surviving fraction ([1]; 500 nM) | surviving fraction ([1]; 1000 nM)
HCC38 BREAST | 0.972 ± 0.24 | 0.947 ± 0.062 | 1.02 ± 0.2 | 1.11 ± 0.22 | 0.78 ± 0.14 | 0.801 ± 0.14 | 0.66 ± 0.11 | 0.785 ± 0.046 | 1.03 ± 0.25 | 0.943 ± 0.17 | 0.291 ± 0.038 | 0.255 ± 0.029 | 0.182 ± 0.02 | 0.186 ± 0.034 | 0.178 ± 0.034 | 0.0973 ± 0.011
HCC70 BREAST | 1.03 ± 0.11 | 1.12 ± 0.082 | 1.16 ± 0.045 | 1.14 ± 0.07 | 1.1 ± 0.091 | 1.15 ± 0.018 | 1.03 ± 0.098 | 0.946 ± 0.093 | 0.996 ± 0.059 | 0.895 ± 0.096 | 0.275 ± 0.035 | 0.089 ± 0.014 | 0.0497 ± 0.0061 | 0.038 ± 0.003 | 0.032 ± 0.0089 | 0.0307 ± 0.0061
HCC78 LUNG | 1.04 ± 0.2 | 1.14 ± 0.23 | 1.03 ± 0.13 | 0.986 ± 0.11 | 1.08 ± 0.039 | 1.13 ± 0.25 | 1.11 ± 0.25 | 1.1 ± 0.25 | 0.721 ± 0.087 | 0.967 ± 0.1 | 0.323 ± 0.047 | 0.454 ± 0.14 | 0.263 ± 0.027 | 0.231 ± 0.03 | 0.203 ± 0.036 | 0.21 ± 0.041
HCC202 BREAST | 0.984 ± 0.2 | 1.17 ± 0.39 | 0.964 ± 0.22 | 1.04 ± 0.26 | 1.31 ± 0.41 | 1.16 ± 0.1 | 1.52 ± 0.38 | 1.18 ± 0.21 | 1.27 ± 0.26 | 1.12 ± 0.07 | 0.855 ± 0.24 | 0.754 ± 0.042 | 0.58 ± 0.028 | 0.501 ± 0.12 | 0.226 ± 0.038 | 0.14 ± 0.049
HCC1395 BREAST | 0.849 ± 0.077 | 0.904 ± 0.088 | 0.849 ± 0.07 | 0.748 ± 0.11 | 0.79 ± 0.072 | 0.804 ± 0.1 | 0.698 ± 0.06 | 0.762 ± 0.19 | 0.927 ± 0.18 | 0.984 ± 0.06 | 1.06 ± 0.013 | 1.11 ± 0.13 | 0.964 ± 0.14 | 1.16 ± 0.26 | 0.964 ± 0.15 | 0.961 ± 0.16
HCC1806 BREAST | 1.04 ± 0.14 | 1.08 ± 0.048 | 1.12 ± 0.063 | 1.14 ± 0.06 | 1.16 ± 0.11 | 1.13 ± 0.05 | 0.996 ± 0.078 | 1 ± 0.17 | 0.842 ± 0.06 | 0.521 ± 0.022 | 0.0733 ± 0.0085 | 0.0613 ± 0.0081 | 0.0497 ± 0.0047 | 0.0377 ± 0.0055 | 0.024 ± 0.001 | 0.0237 ± 0.00058
HCC1954 BREAST | 0.677 ± 0.04 | 0.711 ± 0.052 | 0.84 ± 0.087 | 1.01 ± 0.12 | 0.956 ± 0.023 | 0.887 ± 0.069 | 1.0088 ± 0.00035 | 1 ± 0.1 | 1 ± 0.05 | 0.88 ± 0.12 | 0.43 ± 0.044 | 0.466 ± 0.0085 | 0.487 ± 0.023 | 0.493 ± 0.018 | 0.428 ± 0.028 | 0.253 ± 0.035
HCT15 LARGE INTESTINE | 1.03 ± 0.026 | 1.07 ± 0.029 | 1.03 ± 0.042 | 1.07 ± 0.048 | 1.03 ± 0.042 | 1.08 ± 0.033 | 1.1 ± 0.044 | 1.1 ± 0.041 | 0.998 ± 0.043 | 1.019 ± 0.009 | 1.04 ± 0.03 | 1.04 ± 0.011 | 0.869 ± 0.061 | 1.02 ± 0.036 | 0.172 ± 0.013 | 0.428 ± 0.023
HELA CERVIX | 1.04 ± 0.023 | 1.09 ± 0.035 | 1.07 ± 0.036 | 1.1 ± 0.032 | 1.08 ± 0.013 | 1.07 ± 0.03 | 1.08 ± 0.092 | 1.11 ± 0.13 | 1.1 ± 0.061 | 1.11 ± 0.056 | 0.936 ± 0.026 | 0.741 ± 0.02 | 0.4922 ± 0.0018 | 0.478 ± 0.0081 | 0.406 ± 0.016 | 0.341 ± 0.026
HMLE3 BREAST | 0.986 ± 0.082 | 0.959 ± 0.04 | 0.882 ± 0.05 | 0.79 ± 0.025 | 0.57 ± 0.046 | 0.455 ± 0.053 | 0.418 ± 0.064 | 0.379 ± 0.032 | 1.01 ± 0.11 | 0.883 ± 0.026 | 0.295 ± 0.02 | 0.144 ± 0.0049 | 0.0967 ± 0.012 | 0.092 ± 0.0036 | 0.066 ± 0.0082 | 0.055 ± 0.002
HMT3552 BREAST | 1.06 | 1.09 | 1.01 | 0.895 | 1.03 | 1.04 | 0.852 | 0.888 | 0.986 | 0.77 | 0.376 | 0.287 | 0.219 | 0.212 | 0.17 | 0.136
HOS BONE | 1 ± 0.027 | 1.04 ± 0.011 | 1.04 ± 0.037 | 1.1 ± 0.042 | 1 ± 0.019 | 0.987 ± 0.021 | 0.9247 ± 0.0092 | 0.802 ± 0.039 | 1.02 ± 0.018 | 0.957 ± 0.014 | 0.583 ± 0.02 | 0.409 ± 0.03 | 0.234 ± 0.015 | 0.233 ± 0.0055 | 0.194 ± 0.0038 | 0.112 ± 0.0079
HOSMNG BONE | 1.01 ± 0.088 | 0.996 ± 0.12 | 1.02 ± 0.1 | 1.03 ± 0.035 | 0.964 ± 0.12 | 0.9967 ± 0.0029 | 0.945 ± 0.087 | 1.04 ± 0.097 | 0.981 ± 0.063 | 0.995 ± 0.065 | 1.02 ± 0.11 | 0.944 ± 0.025 | 0.821 ± 0.042 | 0.622 ± 0.029 | 0.399 ± 0.024 | 0.253 ± 0.018
HS578T BREAST | 0.986 ± 0.061 | 1.05 ± 0.06 | 1.04 ± 0.025 | 1.01 ± 0.04 | 0.966 ± 0.056 | 0.94 ± 0.036 | 0.871 ± 0.03 | 0.911 ± 0.039 | 0.767 ± 0.024 | 0.713 ± 0.019 | 0.506 ± 0.064 | 0.504 ± 0.05 | 0.374 ± 0.056 | 0.37 ± 0.049 | 0.186 ± 0.029 | 0.095 ± 0.013
HSSYII SYNOVIAL | 0.872 ± 0.069 | 0.813 ± 0.031 | 0.606 ± 0.04 | 0.434 ± 0.0065 | 0.295 ± 0.015 | 0.302 ± 0.0015 | 0.259 ± 0.0075 | 0.24 ± 0.013 | 0.679 ± 0.029 | 0.789 ± 0.13 | 0.271 ± 0.021 | 0.281 ± 0.0072 | 0.216 ± 0.007 | 0.215 ± 0.018 | 0.0975 ± 0.0058 | 0.138 ± 0.0053
HT1080 SOFT TISSUE | 1.04 ± 0.048 | 1.03 ± 0.025 | 1.01 ± 0.031 | 1 ± 0.0068 | 0.979 ± 0.016 | 0.9753 ± 0.0087 | 0.936 ± 0.03 | 0.817 ± 0.065 | 0.98 ± 0.024 | 0.859 ± 0.018 | 0.295 ± 0.0038 | 0.249 ± 0.013 | 0.194 ± 0.0046 | 0.171 ± 0.0076 | 0.111 ± 0.015 | 0.087 ± 0.0078
